Laboratory results published in PMC5513037, “Examining the influence of specificity ligands and ATP-competitive ligands on the overall effectiveness of bivalent kinase inhibitors” (Proteome Science, 2017).

Assays:
Test in all cases: KAM-matrix competition in K562 lysate;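 on 0.001 uM KAM: median log10 fold change of treatment over DMSO control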;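 on 0.01 uM KAM: median log10 fold change of treatment over DMSO control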;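 on 0.1 uM KAM: median log10 fold change of treatment over DMSO control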;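 on 1 uM KAM: median log10 fold change of treatment over DMSO control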;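 on 10 uM KAM: median log10 fold change of treatment over DMSO control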
Assay type in all cases: binding
PKD1 = target: T1, PKD1 (Homo sapiens, UniProt P98161);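 on 0.001 uM KAM: median log10 fold change of treatment over DMSO control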;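 on 0.01 uM KAM: median log10 fold change of treatment over DMSO control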;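 on 0.1 uM KAM: median log10 fold change of treatment over DMSO control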;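 on 1 uM KAM: median log10 fold change of treatment over DMSO control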;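 on 10 uM KAM: median log10 fold change of treatment over DMSO control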
T1 construct: endogenous in cells; host or cells: K562
Procedure: (§1) Supplement 12953_2017_125_MOESM1_ESM.zip/MS_Supp Info.xlsx, sheet "KAM" | column: 10 uM KAM; 1 uM KAM; 0.1 uM KAM; 0.01 uM KAM; 0.001 uM KAM; RB50

BUB1 = target: T2, BUB1 (Homo sapiens, UniProt O43683);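 on 0.001 uM KAM: median log10 fold change of treatment over DMSO control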;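 on 0.01 uM KAM: median log10 fold change of treatment over DMSO control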;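 on 0.1 uM KAM: median log10 fold change of treatment over DMSO control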;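 on 1 uM KAM: median log10 fold change of treatment over DMSO control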;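 on 10 uM KAM: median log10 fold change of treatment over DMSO control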
T2 construct: endogenous in cells; host or cells: K562
Procedure: as §1

SIK3 = target: T3, SIK3 (Homo sapiens, UniProt Q9Y2K2);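 on 0.001 uM KAM: median log10 fold change of treatment over DMSO control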;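 on 0.01 uM KAM: median log10 fold change of treatment over DMSO control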;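 on 0.1 uM KAM: median log10 fold change of treatment over DMSO control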;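 on 1 uM KAM: median log10 fold change of treatment over DMSO control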;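 on 10 uM KAM: median log10 fold change of treatment over DMSO control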
T3 construct: endogenous in cells; host or cells: K562
Procedure: as §1

FYN = target: T4, FYN (Homo sapiens, UniProt P06241)
T4 construct: endogenous in cells; host or cells: K562
Procedure: as §1

PRKAA1 = target: T5, PRKAA1 (Homo sapiens, UniProt Q13131)
T5 construct: endogenous in cells; host or cells: K562
Procedure: as §1

TNK2 = target: T6, TNK2 (Homo sapiens, UniProt Q07912);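 on 0.001 uM KAM: median log10 fold change of treatment over DMSO control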;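 on 0.01 uM KAM: median log10 fold change of treatment over DMSO control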;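 on 0.1 uM KAM: median log10 fold change of treatment over DMSO control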;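 on 1 uM KAM: median log10 fold change of treatment over DMSO control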;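 on 10 uM KAM: median log10 fold change of treatment over DMSO control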
T6 construct: endogenous in cells; host or cells: K562
Procedure: as §1

PLK1 = target: T7, PLK1 (Homo sapiens, UniProt P53350);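 on 0.001 uM KAM: median log10 fold change of treatment over DMSO control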;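 on 0.01 uM KAM: median log10 fold change of treatment over DMSO control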;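 on 0.1 uM KAM: median log10 fold change of treatment over DMSO control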;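 on 1 uM KAM: median log10 fold change of treatment over DMSO control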;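 on 10 uM KAM: median log10 fold change of treatment over DMSO control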
T7 construct: endogenous in cells; host or cells: K562
T7 sequence (P53350 whole entry): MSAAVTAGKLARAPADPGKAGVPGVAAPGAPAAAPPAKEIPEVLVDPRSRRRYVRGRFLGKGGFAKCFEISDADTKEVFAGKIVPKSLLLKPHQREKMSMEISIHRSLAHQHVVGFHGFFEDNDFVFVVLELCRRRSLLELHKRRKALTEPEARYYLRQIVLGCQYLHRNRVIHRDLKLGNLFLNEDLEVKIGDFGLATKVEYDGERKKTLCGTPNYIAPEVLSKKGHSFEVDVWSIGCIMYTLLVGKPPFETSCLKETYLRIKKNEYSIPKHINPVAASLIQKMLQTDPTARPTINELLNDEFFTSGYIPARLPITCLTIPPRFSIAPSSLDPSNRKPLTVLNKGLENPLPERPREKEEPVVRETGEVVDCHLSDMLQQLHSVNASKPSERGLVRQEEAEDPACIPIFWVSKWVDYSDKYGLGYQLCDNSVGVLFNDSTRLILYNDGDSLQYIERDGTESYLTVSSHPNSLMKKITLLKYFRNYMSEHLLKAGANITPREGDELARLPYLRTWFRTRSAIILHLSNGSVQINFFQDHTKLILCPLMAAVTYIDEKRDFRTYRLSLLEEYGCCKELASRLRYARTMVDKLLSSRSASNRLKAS
Procedure: as §1

EEF2K = target: T8, EEF2K (Homo sapiens, UniProt O00418);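 on 0.001 uM KAM: median log10 fold change of treatment over DMSO control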;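 on 0.01 uM KAM: median log10 fold change of treatment over DMSO control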;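 on 0.1 uM KAM: median log10 fold change of treatment over DMSO control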;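 on 1 uM KAM: median log10 fold change of treatment over DMSO control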;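 on 10 uM KAM: median log10 fold change of treatment over DMSO control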
T8 construct: endogenous in cells; host or cells: K562 lysate
T8 sequence (O00418 1-725): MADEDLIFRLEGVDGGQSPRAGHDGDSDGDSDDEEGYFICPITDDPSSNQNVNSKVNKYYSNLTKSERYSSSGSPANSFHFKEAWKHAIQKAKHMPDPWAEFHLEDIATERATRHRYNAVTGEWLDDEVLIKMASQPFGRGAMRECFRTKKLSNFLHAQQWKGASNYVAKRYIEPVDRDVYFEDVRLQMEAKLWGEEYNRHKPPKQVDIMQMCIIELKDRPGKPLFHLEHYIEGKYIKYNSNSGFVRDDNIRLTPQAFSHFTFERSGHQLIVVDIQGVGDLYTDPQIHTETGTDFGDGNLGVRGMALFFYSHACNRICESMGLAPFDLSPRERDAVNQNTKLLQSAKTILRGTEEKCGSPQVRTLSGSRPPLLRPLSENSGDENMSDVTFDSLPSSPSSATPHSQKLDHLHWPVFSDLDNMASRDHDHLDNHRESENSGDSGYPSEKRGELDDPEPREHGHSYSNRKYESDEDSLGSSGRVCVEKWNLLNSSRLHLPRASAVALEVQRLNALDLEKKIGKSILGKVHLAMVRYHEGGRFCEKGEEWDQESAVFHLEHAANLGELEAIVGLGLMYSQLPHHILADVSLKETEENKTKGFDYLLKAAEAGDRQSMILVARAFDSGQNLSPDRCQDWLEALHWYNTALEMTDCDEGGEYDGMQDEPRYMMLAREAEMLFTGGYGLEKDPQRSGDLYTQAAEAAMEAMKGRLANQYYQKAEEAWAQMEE
Procedure: as §1

PRKDC = target: T9, PRKDC (Homo sapiens, UniProt P78527);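 on 0.001 uM KAM: median log10 fold change of treatment over DMSO control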;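 on 0.01 uM KAM: median log10 fold change of treatment over DMSO control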;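 on 0.1 uM KAM: median log10 fold change of treatment over DMSO control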;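 on 1 uM KAM: median log10 fold change of treatment over DMSO control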;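 on 10 uM KAM: median log10 fold change of treatment over DMSO control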
T9 construct: endogenous in cells; host or cells: K562
T9 sequence (P78527 whole entry): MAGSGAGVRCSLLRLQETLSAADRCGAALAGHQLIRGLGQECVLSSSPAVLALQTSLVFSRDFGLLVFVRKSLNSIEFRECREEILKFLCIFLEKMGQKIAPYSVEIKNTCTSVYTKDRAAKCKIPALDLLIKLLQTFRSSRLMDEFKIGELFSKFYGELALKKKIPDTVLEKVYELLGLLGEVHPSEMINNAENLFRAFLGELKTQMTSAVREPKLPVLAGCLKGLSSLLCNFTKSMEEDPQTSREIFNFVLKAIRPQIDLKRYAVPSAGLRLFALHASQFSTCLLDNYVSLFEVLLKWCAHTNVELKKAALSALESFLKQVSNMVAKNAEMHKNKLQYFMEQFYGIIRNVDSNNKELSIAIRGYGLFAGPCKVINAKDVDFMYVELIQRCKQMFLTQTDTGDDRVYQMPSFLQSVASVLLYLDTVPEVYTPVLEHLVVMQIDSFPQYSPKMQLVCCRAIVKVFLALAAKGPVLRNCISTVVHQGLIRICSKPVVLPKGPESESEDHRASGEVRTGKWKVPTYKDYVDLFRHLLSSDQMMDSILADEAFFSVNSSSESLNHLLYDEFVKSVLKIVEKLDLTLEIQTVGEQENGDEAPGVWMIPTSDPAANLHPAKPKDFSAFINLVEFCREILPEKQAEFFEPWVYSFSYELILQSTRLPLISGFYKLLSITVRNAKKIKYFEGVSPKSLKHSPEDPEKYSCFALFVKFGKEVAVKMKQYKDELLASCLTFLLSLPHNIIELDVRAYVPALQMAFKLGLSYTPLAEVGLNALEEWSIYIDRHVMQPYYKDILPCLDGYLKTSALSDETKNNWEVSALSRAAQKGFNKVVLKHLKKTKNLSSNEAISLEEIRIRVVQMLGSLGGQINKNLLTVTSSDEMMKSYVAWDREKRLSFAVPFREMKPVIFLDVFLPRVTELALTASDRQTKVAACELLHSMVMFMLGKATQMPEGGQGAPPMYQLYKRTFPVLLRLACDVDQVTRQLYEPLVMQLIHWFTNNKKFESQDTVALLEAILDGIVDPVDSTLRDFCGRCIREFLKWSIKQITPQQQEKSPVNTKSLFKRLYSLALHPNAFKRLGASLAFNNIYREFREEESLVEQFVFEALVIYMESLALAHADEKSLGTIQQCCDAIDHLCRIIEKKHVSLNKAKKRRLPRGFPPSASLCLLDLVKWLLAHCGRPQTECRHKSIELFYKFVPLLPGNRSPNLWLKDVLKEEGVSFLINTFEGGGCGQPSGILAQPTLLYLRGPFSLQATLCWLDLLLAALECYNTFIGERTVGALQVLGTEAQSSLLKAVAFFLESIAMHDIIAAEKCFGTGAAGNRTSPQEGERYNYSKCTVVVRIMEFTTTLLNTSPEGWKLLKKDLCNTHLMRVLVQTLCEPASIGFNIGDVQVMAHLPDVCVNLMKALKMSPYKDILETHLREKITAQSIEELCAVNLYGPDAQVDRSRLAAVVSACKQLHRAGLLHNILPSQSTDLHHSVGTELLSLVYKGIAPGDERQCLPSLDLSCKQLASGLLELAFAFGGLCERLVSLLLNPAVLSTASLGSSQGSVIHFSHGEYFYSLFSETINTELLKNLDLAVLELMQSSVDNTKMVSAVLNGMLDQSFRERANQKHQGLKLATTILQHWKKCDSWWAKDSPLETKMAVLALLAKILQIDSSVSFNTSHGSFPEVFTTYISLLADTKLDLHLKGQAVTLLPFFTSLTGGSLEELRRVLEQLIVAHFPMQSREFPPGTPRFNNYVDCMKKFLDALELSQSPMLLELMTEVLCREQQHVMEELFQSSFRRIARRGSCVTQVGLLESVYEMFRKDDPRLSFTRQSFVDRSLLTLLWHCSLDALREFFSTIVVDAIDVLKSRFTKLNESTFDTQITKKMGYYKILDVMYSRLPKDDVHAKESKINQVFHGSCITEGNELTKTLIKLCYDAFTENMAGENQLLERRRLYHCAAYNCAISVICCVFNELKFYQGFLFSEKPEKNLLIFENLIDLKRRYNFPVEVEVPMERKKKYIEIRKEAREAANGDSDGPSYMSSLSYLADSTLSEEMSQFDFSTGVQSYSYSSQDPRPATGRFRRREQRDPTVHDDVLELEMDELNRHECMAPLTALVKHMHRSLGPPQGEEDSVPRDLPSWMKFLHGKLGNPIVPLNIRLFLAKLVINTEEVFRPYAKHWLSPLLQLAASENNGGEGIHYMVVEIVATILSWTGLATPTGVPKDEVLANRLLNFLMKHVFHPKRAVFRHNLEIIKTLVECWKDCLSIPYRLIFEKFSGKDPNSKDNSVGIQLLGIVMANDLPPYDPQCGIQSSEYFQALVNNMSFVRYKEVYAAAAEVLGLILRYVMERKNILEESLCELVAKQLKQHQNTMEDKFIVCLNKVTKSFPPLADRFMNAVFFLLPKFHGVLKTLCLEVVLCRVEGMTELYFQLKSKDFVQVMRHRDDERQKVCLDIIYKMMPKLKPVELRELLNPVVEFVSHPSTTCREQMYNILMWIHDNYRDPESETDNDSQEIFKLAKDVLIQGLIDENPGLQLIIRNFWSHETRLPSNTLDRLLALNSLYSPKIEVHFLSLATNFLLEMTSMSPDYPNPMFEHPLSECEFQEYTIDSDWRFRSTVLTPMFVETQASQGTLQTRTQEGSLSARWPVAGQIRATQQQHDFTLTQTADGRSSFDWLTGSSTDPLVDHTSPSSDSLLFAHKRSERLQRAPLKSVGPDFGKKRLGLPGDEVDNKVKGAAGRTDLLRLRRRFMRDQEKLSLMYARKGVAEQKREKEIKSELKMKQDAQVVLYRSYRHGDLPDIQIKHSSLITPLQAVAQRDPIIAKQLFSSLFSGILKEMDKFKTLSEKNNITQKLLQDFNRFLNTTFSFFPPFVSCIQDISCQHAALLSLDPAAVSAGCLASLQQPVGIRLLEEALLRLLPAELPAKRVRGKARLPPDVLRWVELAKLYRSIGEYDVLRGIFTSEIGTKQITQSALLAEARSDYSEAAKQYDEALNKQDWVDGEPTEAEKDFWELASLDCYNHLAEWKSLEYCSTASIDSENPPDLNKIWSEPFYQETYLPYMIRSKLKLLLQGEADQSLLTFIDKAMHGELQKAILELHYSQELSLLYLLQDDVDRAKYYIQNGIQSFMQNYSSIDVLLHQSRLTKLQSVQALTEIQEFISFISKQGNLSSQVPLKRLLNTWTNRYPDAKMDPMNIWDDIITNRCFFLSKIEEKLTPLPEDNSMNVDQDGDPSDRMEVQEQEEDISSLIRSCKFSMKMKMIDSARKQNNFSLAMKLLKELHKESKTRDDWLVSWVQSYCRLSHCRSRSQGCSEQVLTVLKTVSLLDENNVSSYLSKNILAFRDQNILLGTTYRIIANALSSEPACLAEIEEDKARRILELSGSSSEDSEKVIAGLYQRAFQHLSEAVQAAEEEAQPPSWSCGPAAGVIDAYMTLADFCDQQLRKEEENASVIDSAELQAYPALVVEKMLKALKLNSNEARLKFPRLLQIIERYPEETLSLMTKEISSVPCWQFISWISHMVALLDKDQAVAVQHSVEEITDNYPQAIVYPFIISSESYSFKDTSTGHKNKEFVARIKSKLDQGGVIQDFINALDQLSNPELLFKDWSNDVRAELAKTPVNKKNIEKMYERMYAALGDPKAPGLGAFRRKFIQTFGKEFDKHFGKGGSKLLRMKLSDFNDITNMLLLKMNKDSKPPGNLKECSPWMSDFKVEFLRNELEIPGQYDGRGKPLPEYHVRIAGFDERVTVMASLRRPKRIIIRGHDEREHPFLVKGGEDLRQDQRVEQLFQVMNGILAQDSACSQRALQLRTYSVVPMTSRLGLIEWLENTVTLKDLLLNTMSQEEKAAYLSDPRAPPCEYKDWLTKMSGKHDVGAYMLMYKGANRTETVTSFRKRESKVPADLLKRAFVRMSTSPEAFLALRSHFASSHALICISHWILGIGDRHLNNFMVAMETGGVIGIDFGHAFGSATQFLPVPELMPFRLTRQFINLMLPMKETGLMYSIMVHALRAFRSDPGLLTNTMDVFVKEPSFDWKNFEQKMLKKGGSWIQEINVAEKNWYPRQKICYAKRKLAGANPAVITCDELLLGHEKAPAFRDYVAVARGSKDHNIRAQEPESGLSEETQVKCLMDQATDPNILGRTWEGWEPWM
Procedure: as §1

[1] = KAM 0.001-10 uM, read-out: RB50 (the source's name)
[2] = read-out: RB50 (the source's name)

N#CCc1ccc(Nc2nc(NCCCN)cc(Nc3cc(C4CC4)[nH]n3)n2)cc1 [KAM]
IC50 (PKD1; [1]): > 10 µM | 0.001 uM KAM (PKD1; relative to 0 uM KAM = 0): -0.05857 | 0.01 uM KAM (PKD1; relative to 0 uM KAM = 0): 0.006072 | 0.1 uM KAM (PKD1; relative to 0 uM KAM = 0): -0.01241 | 1 uM KAM (PKD1; relative to 0 uM KAM = 0): -0.0439 | 10 uM KAM (PKD1; relative to 0 uM KAM = 0): 0.04844 | IC50 (BUB1; [1]): > 10 µM | 0.001 uM KAM (BUB1; relative to 0 uM KAM = 0): -0.05097 | 0.01 uM KAM (BUB1; relative to 0 uM KAM = 0): -0.002823 | 0.1 uM KAM (BUB1; relative to 0 uM KAM = 0): -0.07998 | 1 uM KAM (BUB1; relative to 0 uM KAM = 0): -0.1399 | 10 uM KAM (BUB1; relative to 0 uM KAM = 0): -0.1894 | IC50 (SIK3; [1]): > 10 µM | 0.001 uM KAM (SIK3; relative to 0 uM KAM = 0): -0.07223 | 0.01 uM KAM (SIK3; relative to 0 uM KAM = 0): -0.0771 | 0.1 uM KAM (SIK3; relative to 0 uM KAM = 0): -0.08847 | 1 uM KAM (SIK3; relative to 0 uM KAM = 0): -0.01623 | 10 uM KAM (SIK3; relative to 0 uM KAM = 0): -0.07209 | median Log10 fold change (FYN; 0.001 uM KAM): -0.01373 | median Log10 fold change (FYN; 0.01 uM KAM): 0.006068 | median Log10 fold change (FYN; 0.1 uM KAM): -0.1646 | median Log10 fold change (FYN; 1 uM KAM): -0.3588 | median Log10 fold change (FYN; 10 uM KAM): -0.4538 | IC50 (FYN; [2]): 0.754 µM | median Log10 fold change (PRKAA1; 0.001 uM KAM): 0.006818 | median Log10 fold change (PRKAA1; 0.01 uM KAM): -0.02218 | median Log10 fold change (PRKAA1; 0.1 uM KAM): -0.1974 | median Log10 fold change (PRKAA1; 1 uM KAM): -0.5073 | median Log10 fold change (PRKAA1; 10 uM KAM): -0.6565 | IC50 (PRKAA1; [2]): 0.284 µM | IC50 (TNK2; [1]): > 10 µM | 0.001 uM KAM (TNK2; relative to 0 uM KAM = 0): 0.001973 | 0.01 uM KAM (TNK2; relative to 0 uM KAM = 0): -0.007052 | 0.1 uM KAM (TNK2; relative to 0 uM KAM = 0): -0.06006 | 1 uM KAM (TNK2; relative to 0 uM KAM = 0): -0.2026 | 10 uM KAM (TNK2; relative to 0 uM KAM = 0): -0.2086 | IC50 (PLK1; [1]): > 10 µM | 0.001 uM KAM (PLK1; relative to 0 uM KAM = 0): -0.04372 | 0.01 uM KAM (PLK1; relative to 0 uM KAM = 0): 0.0006975 | 0.1 uM KAM (PLK1; relative to 0 uM KAM = 0): -0.07002 | 1 uM KAM (PLK1; relative to 0 uM KAM = 0): -0.1195 | 10 uM KAM (PLK1; relative to 0 uM KAM = 0): -0.1377 | IC50 (EEF2K; [1]): > 10 µM | 0.001 uM KAM (EEF2K; relative to 0 uM KAM = 0): 0.04185 | 0.01 uM KAM (EEF2K; relative to 0 uM KAM = 0): 0.02355 | 0.1 uM KAM (EEF2K; relative to 0 uM KAM = 0): 0.1074 | 1 uM KAM (EEF2K; relative to 0 uM KAM = 0): 0.1036 | 10 uM KAM (EEF2K; relative to 0 uM KAM = 0): 0.09999 | IC50 (PRKDC; [1]): > 10 µM | 0.001 uM KAM (PRKDC; relative to 0 uM KAM = 0): -0.0162 | 0.01 uM KAM (PRKDC; relative to 0 uM KAM = 0): -0.0236 | 0.1 uM KAM (PRKDC; relative to 0 uM KAM = 0): -0.1053 | 1 uM KAM (PRKDC; relative to 0 uM KAM = 0): -0.1689 | 10 uM KAM (PRKDC; relative to 0 uM KAM = 0): -0.08641
